According to ChEMBL document CHEMBL1201862, “PubChem BioAssay data set” (2004):
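48-hour exposure; five concentrations; linearly interpolated endpoints. GI50: concentration for 50% inhibition of growth.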 Activity calls are given as the source filed them. No stated cut-off is given here; in the data, active = GI50 up to about 1.1 µM and inactive = higher. Peptide text beside a SMILES is read from it. * marks the point of attachment. X27 = Clc1c(Cl)c(Cl)c(O*)c(Cl)c1Cl; Boc = CC(C)(C)OC(=O)*; OBn = c1ccc(CO*)cc1; Bn = c1ccc(C*)cc1

Tests used:
Test in all cases: growth of human tumour cells (NCI), 48 h
[1] = system: UO-31
[2] = system: SK-MEL-2
[3] = system: SF-268
[4] = system: CAKI-1
[5] = system: OVCAR-8
[6] = system: KM12
[7] = system: 786-0
[8] = system: ACHN
[9] = system: SK-MEL-5
[10] = system: NCI-H522
[11] = system: SNB-75
[12] = system: OVCAR-4
[13] = system: M14
[14] = system: RXF 393
[15] = system: MDA-MB-435
[16] = system: MDA-N
[17] = system: NCI/ADR-RES
[18] = system: DU-145

Measured: GI50

CC(=O)c1c(C)[n+]([O-])c2cc(C)c(C)cc2[n+]1[O-]
inactive: [1] > 100 µM | [2] > 100 µM | [3] > 100 µM | [4] > 100 µM | [5] > 100 µM | [6] > 100 µM | [7] > 100 µM | [8] > 100 µM | [9] > 100 µM | [10] > 100 µM | [11] > 100 µM | [12] > 100 µM | [13] > 100 µM

Nc1nc2c(ncn2CCOC(c2ccccc2)P(=O)(O)O)c(=O)[nH]1 (stereo unspecified)
inactive: [1] > 100 µM | [2] > 100 µM | [14] > 100 µM | [3] > 100 µM | [4] > 100 µM | [5] > 100 µM | [6] > 100 µM | [7] > 100 µM | [8] > 100 µM | [9] > 100 µM | [10] > 100 µM | [11] > 100 µM

COC(=O)C(=O)C(/C(=N/N)C(=O)Nc1ccccc1C(N)=O)c1nc2ccc([N+](=O)[O-])cc2nc1O (stereo unspecified)
inactive: [1] 58.2 µM | [2] > 100 µM | [3] > 100 µM | [4] > 100 µM | [5] > 100 µM | [6] > 100 µM | [7] > 100 µM | [8] > 100 µM | [9] > 100 µM | [10] > 100 µM | [12] > 100 µM | [13] > 100 µM

O=C1OCc2nc3c(c(-c4ccccc4C(F)(F)F)c21)C(=O)OC3
inactive: [1] > 100 µM | [2] > 100 µM | [14] > 100 µM | [3] > 100 µM | [5] > 100 µM | [6] > 100 µM | [7] > 100 µM | [8] > 100 µM | [9] > 100 µM | [10] > 100 µM | [13] > 100 µM

COc1ccccc1C1C(C(=O)Nc2ccccc2)=C(C)NC(C)=C1C(=O)Nc1ccccc1
inactive: [1] 56.5 µM | [2] 32 µM | [14] 80.2 µM | [3] > 100 µM | [4] > 100 µM | [5] > 100 µM | [6] 28.2 µM | [7] > 100 µM | [8] 39.5 µM | [9] 31.8 µM | [10] 48.1 µM | [11] > 100 µM | [12] 54.8 µM | [13] 45 µM

O=[N+]([O-])c1ccc(C2N3CCCCC3[C@H]3CCCCN23)cc1 (stereo partly specified)
inactive: [1] > 100 µM | [2] > 100 µM | [14] > 100 µM | [3] > 100 µM | [4] > 100 µM | [5] > 100 µM | [6] > 100 µM | [7] > 100 µM | [8] > 100 µM | [9] > 100 µM | [10] > 100 µM | [11] > 100 µM | [12] > 100 µM | [13] > 100 µM

S=c1[nH]c(=S)c2nnn(-c3ccccc3)c2[nH]1
inactive: [1] > 100 µM | [2] > 100 µM | [14] > 100 µM | [3] > 100 µM | [4] > 100 µM | [5] > 100 µM | [6] > 100 µM | [7] > 100 µM | [8] > 100 µM | [9] > 100 µM | [10] > 100 µM | [11] > 100 µM | [13] > 100 µM

O=Cn1c2ccccc2c2ccccc21
inactive: [1] > 100 µM | [2] > 100 µM | [14] > 100 µM | [3] > 100 µM | [5] > 100 µM | [6] > 100 µM | [7] > 100 µM | [8] > 100 µM | [9] > 100 µM | [10] > 100 µM | [13] > 100 µM

NC(=O)NNC(=O)CCn1[nH]c(=O)c(Cl)c(Cl)c1=O
inactive: [1] > 100 µM | [2] > 100 µM | [14] > 100 µM | [3] > 100 µM | [4] > 100 µM | [5] > 100 µM | [7] > 100 µM | [8] > 100 µM | [9] > 100 µM | [10] > 100 µM | [11] > 100 µM | [12] > 100 µM | [13] > 100 µM

CC(C)NC(=O)OCc1nnn2c1C(OC(=O)NC(C)C)CC2 (stereo unspecified)
inactive: [1] > 100 µM | [2] > 100 µM | [14] > 100 µM | [4] > 100 µM | [5] > 100 µM | [6] > 100 µM | [7] > 100 µM | [9] > 100 µM | [10] > 100 µM | [11] > 100 µM | [12] > 100 µM | [13] > 100 µM

O=c1[nH]c2nc3ccccc3c(=O)n2nc1Cc1ccccc1
inactive: [1] 56.8 µM | [2] > 100 µM | [3] > 100 µM | [4] > 100 µM | [5] > 100 µM | [6] > 100 µM | [7] > 100 µM | [8] > 100 µM | [9] > 100 µM | [10] 98.2 µM | [11] > 100 µM | [12] 28.3 µM | [13] > 100 µM

N#Cc1cccc(C2SCc3nc4ccccc4n32)c1 (stereo unspecified)
inactive: [1] 61.1 µM | [2] > 100 µM | [14] 80.2 µM | [3] > 100 µM | [4] 32.4 µM | [5] > 100 µM | [6] > 100 µM | [7] > 100 µM | [8] 74 µM | [9] 19.8 µM | [10] 69.3 µM | [12] 86.7 µM

O=C(NCc1ccccc1)c1cc2ccc(O)c(O)c2cn1
inactive: [1] 18.1 µM | [2] 12.4 µM | [14] 16.6 µM | [3] 15.1 µM | [4] 17.2 µM | [5] 11.2 µM | [6] 33.2 µM | [7] 18 µM | [8] 15.5 µM | [9] 11.1 µM | [10] 16.6 µM | [11] 17.8 µM | [12] 16.6 µM | [13] 5.21 µM

Cc1c2c(cc3c1C(=O)C(=O)C1=C3OC[C@@H]1C)C(C)(C)CCC2
inactive: [1] 18.7 µM | [2] 6.15 µM | [14] 17.9 µM | [3] 14.1 µM | [4] 19.3 µM | [5] 18.2 µM | [6] 11.9 µM | [7] 23.4 µM | [8] 16 µM | [9] 13.3 µM | [11] 26.1 µM | [12] 17.9 µM | [13] 13.9 µM

COc1ccc(C2C(Cl)C(=O)N2n2cnc3ccccc3c2=O)cc1 (stereo unspecified)
inactive: [1] 71 µM | [2] > 100 µM | [14] 30.8 µM | [3] 87.9 µM | [4] 82.8 µM | [5] 51.5 µM | [6] > 100 µM | [7] 46.9 µM | [8] 40.5 µM | [9] 87.1 µM | [10] 89.3 µM | [11] 29.4 µM | [12] 33.3 µM | [13] 28.4 µM

CCOc1ccccc1NC(=O)CC1C(=O)Nc2ccccc2[S+]1[O-] (stereo unspecified)
inactive: [1] 85.3 µM | [2] > 100 µM | [14] 50 µM | [3] > 100 µM | [4] > 100 µM | [5] 43.2 µM | [7] 63.1 µM | [8] 66.2 µM | [9] 54.8 µM | [10] 45.4 µM | [11] > 100 µM | [12] 32.4 µM | [13] 77.1 µM

C/C(=C\C(C)COCc1ccccc1)[C@H](COCc1ccccc1)OCc1ccccc1 (stereo partly specified)
inactive: [1] 83.9 µM | [2] > 100 µM | [14] 26.9 µM | [3] 76.2 µM | [5] > 100 µM | [6] > 100 µM | [7] > 100 µM | [8] > 100 µM | [9] 37.6 µM | [10] 88.5 µM | [11] 80.2 µM | [12] 63.2 µM | [13] > 100 µM

CCCCCCCCCCCC[N+]12CC[N+](C)(CC1)CC2
inactive: [1] > 100 µM | [2] 77.8 µM | [14] 1.31 µM | [3] 18.7 µM | [4] 11.8 µM | [5] > 100 µM | [6] 7.31 µM | [7] 13 µM | [8] 55.1 µM | [9] > 100 µM | [10] 19.4 µM | [11] 13 µM | [12] 44.8 µM | [13] 29.6 µM

O=C1CCc2ccc(O)c(c2)Oc2ccc(cc2)[C@@H]2O[C@@H]2CO1
inactive: [1] 23.8 µM | [2] 34 µM | [3] > 10 µM | [4] 29.6 µM | [5] 75.5 µM | [6] 72.8 µM | [7] > 100 µM | [8] 61.8 µM | [9] 23.6 µM | [11] 37.9 µM | [12] 41 µM | [13] 41.6 µM

CC(C)CC(NC(=O)C(CCC(=O)OCc1ccccc1)NC(=O)OC(C)(C)C)C(=O)NC(COCc1ccccc1)C(=O)NC(Cc1ccccc1)C(=O)Oc1c(Cl)c(Cl)c(Cl)c(Cl)c1Cl (stereo unspecified) (Boc-E(OBn)LS(Bn)F-X27; configuration not given here)
inactive: [15] 26.2 µM | [16] 20 µM | [1] 22.2 µM | [2] 34 µM | [17] 27.4 µM | [14] 21.4 µM | [3] 35.3 µM | [4] 21.2 µM | [5] 27 µM | [6] 20.4 µM | [7] 35.7 µM | [18] 35.5 µM | [8] 23.4 µM | [9] 18.4 µM | [10] 21.9 µM | [11] 40.2 µM | [12] 35.6 µM | [13] 28 µM
